In patent US20230028658A1, “EXPANDED DOSAGE REGIMENS FOR INTEGRIN INHIBITORS” (Pliant Therapeutics, Inc., priority 2021, published 2023):
Like-named read-outs stand apart in the source and are kept apart here.

Columns and labels:
[1] = system: lung Col1a1 expression; experiment: Precision cut lung slices, chronic bleomycin, comparison with nintedanib and pirfenidone (Example B10); type: cell-based, Mice (C57BL/6); details: chronic bleomycin PCLS, 7 days culture, vs DMSO vehicle; FIG. 6A
Experimental: Mice (C57BL/6) were administered 3 U/kg of bleomycin (Teva Pharmaceuticals; North Wales, Pa.) on Day 0 and 1 U/kg of bleomycin on days 14, 28, 42 and 56 via oropharyngeal aspiration while under anesthesia. At day 70, 14 days following the final bleomycin insult, precision cut lung slices were obtained. Following euthanization, 2% low gelling temp agarose was injected into the mouse lungs via the trachea. […] The lobes were then subjected to precision slicing to obtain samples for culture using a microtome (Compresstome VF-300-0Z, Precisionary; Greenville, N.C.). Individual slices were distributed in a multiwell culture plate and cultured for 7 days under control (DMSO) and test compound conditions. The viability of the slices over the course of culturing was confirmed by WST-1 assay of mitochondrial activity.
During the culture period, slices in the control group were treated with DMSO and slices in the test group were treated with a DMSO solution of one of: compound 5; nintedanib; pirfenidone; a combination of nintedanib and compound 5; a combination of pirfenidone and compound 5; or the small molecule ALK5 inhibitor. Compound 5 was […] effective to equal or exceed its respective IC50 values at αvβ6 and αvβ1. […] Nintendanib and pirfenidone were analyzed at concentrations 10× their reported therapeutic concentrations.

[2] = molecular target: αvβ6 (Homo sapiens, UniProt P06756+P18564); experiment: IC50 of αvβ6 adjusted for protein binding
[3] = system: healthy mice; experiment: pSMAD3/SMAD3 in lung tissue and BALF of healthy mice; type: in vivo; details: 4 days of compound 5 treatment, FIG. 4B
From the text: It has been previously shown that inhibition of αvβ6 in the lung can be detected though measurement of phospho-SMAD (pSMAD) in alveolar macrophages. Alveolar macrophages are known to operate in a unique niche in the lung, distinct from interstitial macrophages. SMAD3 is a downstream target of the active TGF-β cytokine binding its receptor and in alveolar macrophages it is phosphorylated by homoeostatic levels of TGF-β. Accordingly, it was desirable to know whether inhibition of TGF-β activation using the disclosed compounds would result in reduced SMAD2 and SMAD3 phosphorylation.
Mice (C57BL/6) were divided into healthy (n=15), vehicle-treated (n=15), and test article-treated (n=15 per dose) groups. […] […] […] […] […] […] […] Samples were prepared for analysis either directly from lung tissue, or by bronchoalveolar lavage, which washes out the bronchiolar and alveolar space with saline to produce a bronchoalveolar lavage fluid (BALF) in which 80-90% of cells are alveolar macrophages.
FIG. 4A is a graph of PSMAD3/SMAD3 in lung tissue from healthy mice administered PBS vehicle and varying levels of compound 5 for 4 days. FIG. 4B is a graph of PSMAD3/SMAD3 in BALF drawn from the same healthy mice administered PBS vehicle and varying levels of compound 5 for 4 days.

[4] = system: COL1A1 expression; experiment: PCLS from IPF lung tissue, seven days, COL1A1 expression; type: cell-based, human; details: PCLS from a single IPF lung tissue sample, Compound 5 200 pM to 1 μM, significant reduction observed ≥2 nM, FIG. 6E
Experimental: PCLS from 5-7 idopathic pulmonary fibrosis (IPF) lung tissue samples were cultured for seven days with one of: DMSO; Compound 5 at 200 nM; nintedanib at 75 nM; pirfenidone at 50 μm; a combination of Compound 5 at 200 nM and nintedanib at 75 nM; a combination of Compound 5 at 200 nM and pirfenidone at 50 μm; or an Alk5 inhibitor at 1 μm. […] FIG. 6D is a bar graph showing relative expression of COL1A1 in precision cut lung slices (PCLS) from idopathic pulmonary fibrosis (IPF) lung tissue upon exposure to Compound 5, clinical standard of care compounds nintedanib (Nin) and pirfenidone (Pirf), and an ALK5 inhibitor, all versus DMSO control.
PCLS from a single IPF lung tissue sample were cultured for seven days with Compound 5 at concentrations of 200 pM, 2 nM, 60 nM, 200 nM, and 1 μM, along with 0.1% DMSO control and an Alk5 inhibitor at 1 μM. […] COL1A1 expression is also graphed for the PCLS in the presence of 0.1% DMSO control, and an Alk5 inhibitor at 1 μM.

[5] = Binding to plasma proteins, equilibrium dialysis; type: in vitro ADME; details: human, plasma of dosed study participants, oral, participants' plasma Day 7
Experimental: Binding to plasma proteins was determined in participants' plasma (Day 7) using a qualified equilibrium dialysis protocol. The mean % unbound was 0.292%±0.067%, and ranged from 0.182% to 0.38% across the 20-mg cohort participants. The mean % unbound was 0.318%+0.065% and ranged from 0.22% to 0.376% across the 40-mg cohort participants. Due to the unexpected amount of plasma protein binding in these participants, it was decided to examine higher doses of the dual […] inhibitor (Compound 5) to determine whether such higher doses would compensate for the high protein binding and provide greater amounts of free drug.

[6] = system: normal bronchial epithelial cell; experiment: normal bronchial epithelial cell adhesion to LAP (FIG. 3A); type: cell-based
[7] = First-in-human SAD and MAD pharmacokinetics (Example B12); type: in vivo; details: plasma, healthy subjects, oral solution, SAD 15-75 mg and MAD 10-40 mg, read-out: calculated half life
Experimental: Healthy human subjects (N=85) were selected for single ascending dose (SAD) and multiple ascending dose (MAD) first-in-human studies. A solution for oral administration was prepared, containing 10 mg/mL of compound 5 in a 50:50 mixture of ORA-SWEET® SF (PERRIGO®, Allegan, Mich.) and sterile water for irrigation. Sufficient solution was administered orally to the subjects to provide between 15 mg/dose and 75 mg/dose of compound 5 in the SAD study and between 10 mg/dose and 40 mg/dose of compound 5 in the MAD study. Concentrations of compound 5 were measured in the subjects by obtaining a sample of plasma from each subject at desired intervals, and subjecting the plasma to liquid chromatography-mass spectrometry-mass spectrometry (LC-MS/MS), with quantification using a calibration curve determined from a range of solutions at standardized concentrations. The lower limit of quantitation (LLOQ) of the assay was 1 ng/mL and the calibration curve range was 1 to 500 ng/mL.

[8] = system: IPF-derived lung fibroblasts; experiment: cell adhesion in IPF-derived lung fibroblasts (FIG. 3B); type: cell-based

Sequence of αvβ6 (P06756 31-1048): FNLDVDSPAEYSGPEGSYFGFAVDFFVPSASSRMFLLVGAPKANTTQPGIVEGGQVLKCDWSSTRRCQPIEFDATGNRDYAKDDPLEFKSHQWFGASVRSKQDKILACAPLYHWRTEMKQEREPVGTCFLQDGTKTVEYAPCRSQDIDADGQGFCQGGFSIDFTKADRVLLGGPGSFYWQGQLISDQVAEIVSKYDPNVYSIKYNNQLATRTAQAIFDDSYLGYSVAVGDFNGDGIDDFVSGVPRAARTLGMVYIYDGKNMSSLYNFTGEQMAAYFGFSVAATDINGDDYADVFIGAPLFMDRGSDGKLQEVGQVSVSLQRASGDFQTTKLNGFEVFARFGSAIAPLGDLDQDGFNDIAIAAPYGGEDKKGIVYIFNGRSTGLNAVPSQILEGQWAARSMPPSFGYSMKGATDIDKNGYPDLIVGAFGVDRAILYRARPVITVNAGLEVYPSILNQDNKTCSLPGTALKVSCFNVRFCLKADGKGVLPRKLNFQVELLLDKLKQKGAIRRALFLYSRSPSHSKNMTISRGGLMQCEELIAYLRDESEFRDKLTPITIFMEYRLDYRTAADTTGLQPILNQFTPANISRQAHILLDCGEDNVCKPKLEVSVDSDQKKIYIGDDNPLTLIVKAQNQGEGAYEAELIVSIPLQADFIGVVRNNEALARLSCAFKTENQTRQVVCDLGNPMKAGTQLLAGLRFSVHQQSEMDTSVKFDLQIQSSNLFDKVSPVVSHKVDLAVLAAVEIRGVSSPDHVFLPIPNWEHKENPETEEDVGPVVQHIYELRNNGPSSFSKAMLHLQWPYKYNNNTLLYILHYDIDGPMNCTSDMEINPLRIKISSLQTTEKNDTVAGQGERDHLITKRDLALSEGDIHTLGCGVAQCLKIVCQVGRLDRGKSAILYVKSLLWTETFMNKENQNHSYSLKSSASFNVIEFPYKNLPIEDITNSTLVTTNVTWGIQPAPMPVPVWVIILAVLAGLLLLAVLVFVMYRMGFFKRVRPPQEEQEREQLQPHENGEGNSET
Sequence of αvβ6 (P18564 22-788): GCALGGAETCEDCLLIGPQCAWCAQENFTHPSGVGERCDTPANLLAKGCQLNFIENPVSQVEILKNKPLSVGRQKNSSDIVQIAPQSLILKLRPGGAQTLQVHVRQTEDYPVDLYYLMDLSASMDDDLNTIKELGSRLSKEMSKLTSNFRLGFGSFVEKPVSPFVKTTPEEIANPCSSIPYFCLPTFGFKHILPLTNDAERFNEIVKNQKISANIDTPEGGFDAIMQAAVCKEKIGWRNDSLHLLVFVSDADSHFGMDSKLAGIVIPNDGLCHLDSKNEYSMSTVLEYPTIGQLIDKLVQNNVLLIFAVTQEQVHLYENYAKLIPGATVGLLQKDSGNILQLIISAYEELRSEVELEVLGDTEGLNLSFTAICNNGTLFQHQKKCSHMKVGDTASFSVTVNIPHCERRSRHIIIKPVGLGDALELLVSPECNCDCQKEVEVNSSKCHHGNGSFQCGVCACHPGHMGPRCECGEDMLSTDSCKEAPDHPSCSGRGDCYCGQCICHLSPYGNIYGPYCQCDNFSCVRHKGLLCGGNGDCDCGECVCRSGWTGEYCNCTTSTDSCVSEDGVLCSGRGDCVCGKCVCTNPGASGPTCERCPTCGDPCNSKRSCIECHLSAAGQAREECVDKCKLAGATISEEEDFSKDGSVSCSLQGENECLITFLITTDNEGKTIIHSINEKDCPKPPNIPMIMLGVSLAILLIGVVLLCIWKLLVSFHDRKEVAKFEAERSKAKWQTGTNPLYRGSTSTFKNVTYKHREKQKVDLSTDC

COCCN(CCCCc1ccc2c(n1)NCCC2)CC[C@H](Nc1ncnc2ccccc12)C(=O)O [Compound 5, (S)-4-((2-methoxyethyl) (4-(5,6,7,8-tetrahydro-1,8-naphthyridin-2-yl)butyl)amino)-2-(quinazolin-4-ylamino) butanoic acid]
lung slice Col1a1 expression [1]: substantial, statistically significant (p<0.01 vs vehicle) decrease | IC50 [2]: 10 nM | PSMAD3/SMAD3 in cells isolated from BALF [3]: approximately 50 % of the untreated levels | reduction in COL1A1 expression at ≥2 nM [4]: ≥ 47% | fraction unbound ([5]; 20 mg, 20-mg cohort, read-out: % unbound, range across participants): 0.00182 to 0.0038 | fraction unbound ([5]; 20 mg, 20-mg cohort, read-out: mean % unbound): 0.00292 | fraction unbound ([5]; 40 mg, 40-mg cohort, read-out: % unbound, range across participants): 0.0022 to 0.00376 | fraction unbound ([5]; 40 mg, 40-mg cohort, read-out: mean % unbound): 0.00318 | normal bronchial epithelial cell adhesion to LAP [6]: substantially inhibited | half-life [7]: 35 to 55 h | cell adhesion in the IPF-derived lung fibroblasts [8]: substantially inhibited
